Source: patent US12116388B2, “Amylin receptor agonists” (Novo Nordisk A/S, priority 2022, dated 2024)
pEC50: −log10 of the molar value. Starred links: 1 amine or outer side, 2 acyl side, 3 side chain; linkers in the order of their positions; H or OH if unused. Residues, ends and D or L forms follow the SMILES beside them. *: point of attachment. C20 diacid = O=C(O)CCCCCCCCCCCCCCCCCCC(=O)*; C18 diacid = O=C(O)CCCCCCCCCCCCCCCCC(=O)*; γGlu = O=C(O)[C@H](CCC(=O)[*:2])N[*:1]

Tests used:
[1] = biological target: T1, human amylin receptor (hAMYR3) (Homo sapiens, UniProt O60896+P30988); assay: Human amylin receptor (hAMYR3) in vitro potency assay, CRE-luciferase reporter in BHK cells; assay type: cell-based; settings: BHK hAMYR3/CRE-Luc cells, 3 hours incubation, assay buffer with 1% ovalbumin
T1 construct: host or cells: BHK (Baby Hamster Kidney), Hollex-1 cell line further transfected with RAMP3
T1 sequence (O60896 24-148, one chain of several): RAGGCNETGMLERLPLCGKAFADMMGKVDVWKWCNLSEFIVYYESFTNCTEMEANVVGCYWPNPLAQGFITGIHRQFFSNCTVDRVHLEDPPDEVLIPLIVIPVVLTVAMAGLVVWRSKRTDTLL
From the text: (§1) Activation of hAMYR3 leads to increased cellular concentrations of cAMP. Consequently, transcription is activated by promotors containing multiple copies of the CAMP response element (CRE). It is thus possible to measure hAMYR3 activity using a CRE-luciferase reporter gene introduced into Baby Hamster Kidney (BHK) cells co-expressing the hAMYR3.
A BHK cell line was stably transfected with the human calcitonin receptor (a) and a CRE-responsive luciferase (CRE-Luc) reporter gene according to methods known to the person skilled in the art (Hollex-1 cell line, obtained from Zymogenetics described in U.S. Pat. No. 5,622,839). The cell line was further transfected with human receptor modifying protein 3 (RAMP3) using standard methods. This turns the human calcitonin receptor into a human amylin-3(a) receptor.
(§2) Cells stocks were prepared by culturing of the stably transfected BHK hAMYR3/CRE-Luc cell line in growth medium consisting of DMEM (Gibco, 31966-021) supplemented with 10% FBS (Gibco, 16140-071), 1% Pen/Strep (Gibco, 15140-122), 0.5 mg/mL Geneticin (Gibco, 10131-027), 0.4 mg/mL Hygromycin (Invitrogen, 10687010) and 250 nM Methotrexate (Sigma, A6770). Cells at approximately 80-90% confluence were washed once with PBS (Gibco 14190-094) and loosened from the cell flasks with Versene (Gibco, 15040-033) or TrypLE™ (Gibco, 12605-010). After centrifugation, the cell pellet was dissolved and diluted to approximately 2.5×10E6 cells/mL in Recovery™ Cell Culture Freezing Medium (Gibco, 12648-010). Cells were aliquoted and stored at −180° C. until use.
(§3) The assay buffer consisted of DMEM without phenol red (Gibco, 11880-028) supplemented with 1× GlutaMAX (Gibco, 35050-038), 10 mM HEPES (Gibco, 15630-056) and 1% (w/v) ovalbumin (Sigma, A5503).
(§4) To perform the assay, BHK hAMYR3/CRE-Luc cells were thawed, washed once in PBS and seeded in 40 μL growth medium in a white 384-well culture plate (PerkinElmer, 6007688) at a cell density of 4.000 cells/well on the day before the experiment. The plate was incubated over night at 37° C. in 5% CO2. On the day of the assay, cells were washed once in assay buffer. Serial dilutions (7-fold dilutions, 7 concentrations Pr. compound and one well containing only assay buffer) of comparator compounds and amylin analogues were performed in assay buffer often starting from approximately 10 nM in 96-well plates and 30 μL of each concentration added to the 384-well assay plate with cells. The assay plate was incubated for 3 hours at 37° C. in 5% CO2 after which 30 μL SteadyLite Plus (PerkinElmer, 6066759) was added to each well. The assay plate was sealed, incubated at room temperature with gentle shaking for 5 minutes followed by 30 minutes incubation without shaking while protected from light. Luminescence was detected on a luminescence plate reader e.g. a Synergy 2 (BioTek).

[2] = biological target: T2, human calcitonin receptor (hCTR) (Homo sapiens, UniProt P30988); assay: Human calcitonin receptor (hCTR) in vitro potency assay, CRE-luciferase reporter in BHK cells; assay type: cell-based; settings: BHK hCTR/CRE-Luc cells, 3 hours incubation, assay buffer with 1% ovalbumin; read-out: hCalcR potency, EC50
T2 construct: host or cells: BHK (Baby Hamster Kidney), Hollex-1 cell line
T2 sequence (P30988 25-474): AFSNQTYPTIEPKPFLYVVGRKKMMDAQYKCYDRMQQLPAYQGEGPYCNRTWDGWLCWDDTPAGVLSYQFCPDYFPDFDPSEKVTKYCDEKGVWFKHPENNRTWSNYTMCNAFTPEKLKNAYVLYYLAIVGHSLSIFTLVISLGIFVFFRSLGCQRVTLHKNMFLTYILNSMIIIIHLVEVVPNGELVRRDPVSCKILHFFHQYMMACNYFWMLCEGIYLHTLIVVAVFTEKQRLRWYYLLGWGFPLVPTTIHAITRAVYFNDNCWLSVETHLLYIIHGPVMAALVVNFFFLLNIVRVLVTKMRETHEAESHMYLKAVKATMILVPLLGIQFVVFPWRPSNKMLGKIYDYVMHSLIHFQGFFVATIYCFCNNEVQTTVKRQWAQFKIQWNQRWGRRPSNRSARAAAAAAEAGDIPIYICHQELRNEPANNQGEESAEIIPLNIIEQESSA
From the text: as §1, with “hCTR” for “hAMYR3”, “CAMP.” for “cAMP.”, “hCTR.” for “hAMYR3.”
A BHK cell line was stably transfected with the human calcitonin receptor (a) and a CRE-responsive luciferase (CRE-Luc) reporter gene according to methods known to the person skilled in the art (Hollex-1 cell line, obtained from Zymogenetics described in U.S. Pat. No. 5,622,839).
as §2, with “hCTR/CRE-Luc” for “hAMYR3/CRE-Luc”, “10131-027)” for “10131-027), 0.4 mg/mL Hygromycin (Invitrogen, 10687010)”
as §3
as §4, with “hCTR/CRE-Luc” for “hAMYR3/CRE-Luc”

Structure (SMILES) | pEC50 [1] | pEC50 [2]
CC[C@H](C)[C@H](NC(=O)[C@@H]1CCCN1C(=O)CNC(=O)[C@H](Cc1ccccc1)NC(=O)[C@H](CC(N)=O)NC(=O)[C@H](CC(=O)O)NC(=O)[C@H](CO)NC(=O)[C@H](CO)NC(=O)[C@H](Cc1c[nH]cn1)NC(=O)[C@H](Cc1c[nH]cn1)NC(=O)[C@H](CC(C)C)NC(=O)[C@H](Cc1ccccc1)NC(=O)[C@H](CCC(=O)O)NC(=O)[C@H](C)NC(=O)[C@H](CC(C)C)NC(=O)[C@H](CCCNC(=N)N)NC(=O)[C@H](CCC(N)=O)NC(=O)[C@@H](NC(=O)[C@H](CCC(N)=O)NC(=O)[C@H](C)NC(=O)[C@@H](NC(=O)[C@H](CO)NC(=O)[C@H](CC(C)C)NC(=O)[C@H](Cc1c[nH]cn1)NC(=O)[C@H](CO)NC(=O)[C@H](C)NC(=O)CC[C@H](NC(=O)CCCCCCCCCCCCCCCCC(=O)O)C(=O)O)[C@@H](C)O)[C@@H](C)O)C(=O)N[C@@H](CC(C)C)C(=O)N1CCC[C@H]1C(=O)N1CCC[C@H]1C(=O)N[C@H](C(=O)N[C@@H](CC(=O)O)C(=O)N[C@H](C(=O)NCC(=O)N[C@@H](CO)C(=O)N[C@@H](CC(N)=O)C(=O)N[C@H](C(=O)N1CCC[C@H]1C(N)=O)[C@@H](C)O)C(C)C)[C@@H](C)O [Compound 21, N^1-[(4S)-4-carboxy-4-(17-carboxyheptadecanoylamino)butanoyl]-[Ala1,Ser2,His3,Leu4,Ser5,Ala7,Gln8,Glu14,His17,Asp21,Pro25,Pro28,Pro29,Asp31,Pro37]-human amylin] ({C18 diacid-γGlu}-ASHLSTAQTQRLAEFLHHSSDNFGPILPPTDVGSNTP-NH2) | 11.79 | 11.72
CC[C@H](C)[C@H](NC(=O)[C@@H]1CCCN1C(=O)CNC(=O)[C@H](Cc1ccccc1)NC(=O)[C@H](CC(N)=O)NC(=O)[C@H](CC(=O)O)NC(=O)[C@H](CO)NC(=O)[C@H](CO)NC(=O)[C@H](Cc1c[nH]cn1)NC(=O)[C@H](Cc1c[nH]cn1)NC(=O)[C@H](CC(C)C)NC(=O)[C@H](Cc1ccccc1)NC(=O)[C@H](CCC(=O)O)NC(=O)[C@H](C)NC(=O)[C@H](CC(C)C)NC(=O)[C@H](CCCNC(=N)N)NC(=O)[C@H](CCC(N)=O)NC(=O)[C@@H](NC(=O)[C@H](CCC(N)=O)NC(=O)[C@H](C)NC(=O)[C@@H](NC(=O)[C@H](CO)NC(=O)[C@H](CC(C)C)NC(=O)[C@H](Cc1c[nH]cn1)NC(=O)[C@H](CO)NC(=O)[C@H](C)NC(=O)CC[C@H](NC(=O)CCCCCCCCCCCCCCCCCCC(=O)O)C(=O)O)[C@@H](C)O)[C@@H](C)O)C(=O)N[C@@H](CC(C)C)C(=O)N1CCC[C@H]1C(=O)N1CCC[C@H]1C(=O)N[C@H](C(=O)N[C@@H](CC(=O)O)C(=O)N[C@H](C(=O)NCC(=O)N[C@@H](CO)C(=O)N[C@@H](CC(N)=O)C(=O)N[C@H](C(=O)N1CCC[C@H]1C(N)=O)[C@@H](C)O)C(C)C)[C@@H](C)O [Compound 3, N^1-[(4S)-4-carboxy-4-(19-carboxynonadecanoylamino)butanoyl]-[Ala1,Ser2,His3,Leu4,Ser5,Ala7,Gln8,Glu14,His17,Asp21,Pro25,Pro28,Pro29,Asp31,Pro37]-human amylin] ({C20 diacid-γGlu}-ASHLSTAQTQRLAEFLHHSSDNFGPILPPTDVGSNTP-NH2) |  | 11.89
CC[C@H](C)[C@H](NC(=O)[C@H](C)NC(=O)CNC(=O)[C@H](Cc1ccccc1)NC(=O)[C@@H]1CCCN1C(=O)[C@H](CC(=O)O)NC(=O)[C@H](CO)NC(=O)[C@H](CO)NC(=O)[C@H](Cc1c[nH]cn1)NC(=O)[C@H](Cc1c[nH]cn1)NC(=O)[C@H](CC(C)C)NC(=O)[C@H](Cc1ccccc1)NC(=O)[C@H](CCC(=O)O)NC(=O)[C@H](C)NC(=O)[C@H](CC(C)C)NC(=O)[C@H](CCCNC(=N)N)NC(=O)[C@H](CCC(N)=O)NC(=O)[C@@H](NC(=O)[C@H](CCC(N)=O)NC(=O)[C@H](C)NC(=O)[C@@H](NC(=O)[C@H](CO)NC(=O)[C@H](CC(C)C)NC(=O)[C@H](Cc1c[nH]cn1)NC(=O)[C@H](CO)NC(=O)[C@H](C)NC(=O)CC[C@H](NC(=O)CCCCCCCCCCCCCCCCCCC(=O)O)C(=O)O)[C@@H](C)O)[C@@H](C)O)C(=O)N1CCC[C@H]1C(=O)N[C@@H](CO)C(=O)N[C@@H](CO)C(=O)N[C@H](C(=O)N[C@@H](CC(=O)O)C(=O)N[C@H](C(=O)NCC(=O)N1CCC[C@H]1C(=O)N[C@@H](CC(=O)O)C(=O)N[C@H](C(=O)N1CCC[C@H]1C(N)=O)[C@@H](C)O)C(C)C)[C@@H](C)O [Compound 6, N^1-[(4S)-4-carboxy-4-(19-carboxynonadecanoylamino)butanoyl]-[Ala1,Ser2,His3,Leu4,Ser5,Ala7,Gln8,Glu14,His17,Asp21,Pro22,Pro27,Asp31,Pro34,Asp35,Pro37]-human amylin] ({C20 diacid-γGlu}-ASHLSTAQTQRLAEFLHHSSDPFGAIPSSTDVGPDTP-NH2) |  | 11.90
